Laboratory results reported in PubChem BioAssay (NCI).
Values joined by “and” are separate entries in the source; they are usually repeats but may differ in a detail not shown here. Equal entries are not always repeated.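 Values below derive from 48-hour exposures of cells grown in 96-well plates, with endpoints linearly interpolated between the two concentrations bracketing the appropriate inhibition level. GI50 is the concentration that inhibits growth by half. TGI denotes the concentration required for complete inhibition of growth.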

Legend:
Test in all cases: NCI tumour cell line growth inhibition, 48 h
[1] = test system: SK-OV-3 ovarian
[2] = test system: EKVX NSCLC
[3] = test system: MOLT-4 leukemia
[4] = test system: RPMI-8226 leukemia
[5] = test system: HL-60(TB) leukemia
[6] = test system: CAKI-1 renal
[7] = test system: NCI/ADR-RES ovarian
[8] = test system: RXF 393 renal

Row | SMILES | GI50 [1] | TGI [1] | GI50 [2] | TGI [2] | GI50 [3] | TGI [3] | GI50 [4] | TGI [4] | GI50 [5] | TGI [5] | GI50 [6] | TGI [6] | GI50 [7] | TGI [7] | GI50 [8] | TGI [8]
1 | CCn1nc(C#Cc2c(C)ccc3c(Nc4ccc(Cl)cc4)nccc23)c2c(N)ncnc21 | 4.38 µM | > 100 µM | 7.4 µM | > 100 µM | 4.32 µM | > 100 µM | 3.77 µM | > 100 µM | 0.598 µM | > 100 µM | 4.78 µM | > 100 µM | 3.1 µM | 10.7 µM | 2.63 µM | 8.98 µM
2 | COc1cc(-c2nn(-c3cccc(NC(=O)NCCNC(=O)c4ccccc4)c3)cc2-c2ccncc2)ccc1Cl | 4.21 µM | > 100 µM | 3.76 µM | > 100 µM | 2.18 µM | > 100 µM | – | – | – | – | – | – | – | – | 1.94 µM | 6.42 µM
3 | Cc1ccccc1C1N=C2Oc3ccccc3C=C2C(=O)N1 (stereo not drawn) | 0.66 µM | > 100 µM | – | – | 19 µM | > 100 µM | 62.9 µM | > 100 µM | 2.42 µM | 17.7 µM | 5.46 µM | > 100 µM | 2.96 µM | > 87.8 µM | 0.488 µM | –
4 | CCN(CC)CCCC(C)Nc1ccnc2cc(OC)ccc12 (stereo not drawn) | 24.9 µM | 52.3 µM | 44.9 µM | > 100 µM | 25.9 µM | 74.5 µM | 18.6 µM | 42 µM | – | – | 19.6 µM | 44.4 µM | 91.1 µM | > 100 µM | 15.7 µM | 35.5 µM
5 | CNC(=S)N/N=C/CSC/C=N/NC(=S)NC | > 100 µM | > 100 µM | – | – | > 100 µM | > 100 µM | > 100 µM | > 100 µM | > 62.3 µM | > 100 µM | > 100 µM | > 100 µM | > 100 µM | > 100 µM | > 100 µM | > 100 µM
6 | CC(C)CC(=O)O[C@H]1C(=O)O[C@@H]2C[C@H]3[C@H](C)C(=O)C(O[C@@H]4O[C@H](CO)[C@@H](O)[C@H](O)[C@H]4O)=C[C@]3(C)[C@H]3[C@@H](O)[C@H](O)[C@]4(C(=O)O)OC[C@]32[C@@H]14 | – | > 100 µM | > 100 µM | > 100 µM | 18.9 µM | > 100 µM | – | – | 41.3 µM | > 100 µM | – | – | > 100 µM | > 100 µM | 10.8 µM | 38.7 µM
7 | O=c1[nH]c(-c2ccncc2)nc2sc3c(c12)CCCCCC3 | – | – | – | – | > 100 µM | > 100 µM | > 100 µM | > 100 µM | > 100 µM | > 100 µM | > 100 µM | > 100 µM | – | – | > 100 µM | > 100 µM
8 | Fc1cnccc1-c1nc2ccc3[nH]ncc3c2c2c1CCCC2 | 0.342 µM | 3.66 µM | 0.442 µM | 13 µM | – | – | 1.2 µM | 6.33 µM | 2.2 µM | 7.3 µM | – | – | 2.41 µM | > 100 µM | 0.612 µM | 3.29 µM
9 | C=C(C)[C@@H]1CC[C@]2(C(=O)OC)CC[C@]3(C)[C@H](CC[C@@H]4[C@@]5(C)CC/C(=N\OCCC(=NCCC#N)NOCCC#N)C(C)(C)[C@@H]5CC[C@]43C)[C@@H]12 | 10.8 µM | > 50 µM | 4.77 µM | > 50 µM | 2.52 µM | 13 µM | 4.91 µM | 42.7 µM | 5.18 µM | 24.9 µM | 10.2 µM | > 50 µM | 13.5 µM | > 50 µM | 5.64 µM | 16.6 µM
10 | N=C(N)c1ccc(-c2ccc(-c3cccs3)s2)cc1F | – | – | – | – | 1.03 µM | 2.87 µM | 0.288 µM | 0.951 µM | 1.79 µM | 3.83 µM | 1.37 µM | 2.82 µM | 2 µM | 4.3 µM | 1.25 µM | 2.64 µM
11 | CC1SC(c2ccc(OCc3ccccc3)cc2)N(NC(=O)C(O)(c2ccccc2)c2ccccc2)C1=O (stereo not drawn) | 9.49 µM | 33.2 µM | 5.49 µM | 22.5 µM | 2.02 µM | 5.58 µM | 2.05 µM | 6.13 µM | 1.85 µM | 5.02 µM | 2.49 µM | 8.6 µM | 3.72 µM | 17.8 µM | – | –
12 | COC(=O)[C@@H](C)C[C@H](Cc1ccccc1)NC(=O)c1nc([C@@H](C[C@H](C(C)C)N(C)C(=O)[C@@H](NC(=O)[C@H]2CC(=O)CCN2C)C(C)C)OC(C)=O)sc1C(C)C | 0.809 µM | > 16.7 µM | 0.953 µM | > 16.7 µM | 0.532 µM | > 16.7 µM | 0.056 µM | 4.38 µM | 0.0529 µM | 0.227 µM | 0.499 µM | > 16.7 µM | 4.11 µM | > 16.7 µM | – | –
13 | CCN(CC)CCN1C(=O)c2cccc3cc(N)cc(c23)C1=O | – | 69.3 µM | – | 22.8 µM | – | > 100 µM | – | 39.8 µM | – | 50.5 µM | – | > 100 µM | – | 58.8 µM | – | 34.1 µM
14 | Cc1nn(-c2ccccc2)c2c1[C@@H](C)[C@H]1CC3(CC4(C)C[C@@H]3C1(C)c1c(C)nn(-c3ccccc3)c1N4C)N2C (stereo partly drawn) | 24.1 µM | > 100 µM | – | – | – | – | – | – | – | – | – | – | > 100 µM | > 100 µM | 3.41 µM | 48.2 µM
15 | CC1(C)CC[C@]2(C(=O)O)CC[C@]3(C)C(=CC[C@@H]4[C@@]5(C)C/C(=C/c6cccnc6)[C@H](O)C(C)(C)[C@@H]5CC[C@]43C)[C@@H]2C1 | 19 µM | > 100 µM | 6.02 µM | 56.6 µM | 2.63 µM | 26 µM | 3.02 µM | 18.8 µM | 2.12 µM | 5.94 µM | 10.2 µM | > 100 µM | 9.82 µM | > 100 µM | 7.28 µM | 36.6 µM
16 | CC[C@@]12CC(C(=O)OC)=C3Nc4ccccc4[C@@]34CCN(C[C@H]3O[C@H]31)[C@@H]24 | – | – | 40.2 µM | > 100 µM | 27.9 µM | > 100 µM | 23.5 µM | > 100 µM | 24.7 µM | 81 µM | 36.9 µM | > 100 µM | 31 µM | > 100 µM | 26.4 µM | > 100 µM
17 | O=C(/C=C/c1ccccc1)c1ccccn1 | – | 67 µM and > 100 µM | – | 45.5 µM and 41 µM | – | 61.4 µM and 72.6 µM | 5.71 µM and 15.9 µM | 31.6 µM and 81.1 µM | 2.55 µM and 16.4 µM | 53.6 µM and 84.8 µM | – | 33.2 µM and 64.4 µM | – | 54.5 µM and > 100 µM | – | 37.4 µM and 36.5 µM
